Measurements taken from patent US10501479B2, “Benzenesulfonyl-asymmetric ureas and medical uses thereof” (HELSINN HEALTHCARE SA, priority 2016, dated 2019).
Where “and” joins values, the source holds several entries; their conditions need not be identical. Identical values can stand only once. Counter-ions that a name gives are not always drawn.

What was measured:
[1] = target: T1, recombinant human ghrelin receptor (HEK293/GRLN) (Homo sapiens, UniProt Q92847); test: Ghrelin inverse agonist potency (EC50) with IP-1 (IP-One HTRF) assay; format: cell-based; conditions: inverse agonist potency, IP-1 assay; read-out: EC50 (Activity)
T1 construct: expressed in transfected cells
Protocol: Evaluation of Ghrelin Inverse Agonist Potency (EC50) with IP-1 Assay:
HEK293 cells stably expressing recombinant human ghrelin receptor (HEK293/GRLN) were used in the IP-One HTRF assay. One day before the test, cells were seeded at a density of 1.5×10^4/well in a Matrigel® coated 384-well plate with 30 μL of complete Dulbecco's Modified Eagle's Medium and incubated at 37° C. in 5% CO2 for 18-22 hours. On the test day, the medium was removed by centrifugation at 600 rpm for 30 seconds, and 20 μL of stimulation buffer containing 1x tested compound was added with Bravo (Agilent technologies). The plate was then incubated at 37° C. 5% CO2 for 1 hour. After the incubation, 5 μL of IP1-d2 and 5 μL of Tb-Cryp were added to all wells using multidrop Combi(Thermo). After additional incubation at room temperature for 1 hour, the plates were read on Envision with 620 and 665 (Perkin Elmer).

[2] = target: T2, GHSR-1a (HEK293/GHSR1a cell line) (Homo sapiens, UniProt Q92847); test: Ghrelin antagonist potency (IC50) with calcium FLIPR assay, ghrelin 10 nM; format: cell-based; conditions: ghrelin antagonist potency, read-out: IC50 (Activity)
T2 construct: expressed in transfected cells; host or cells: HEK293/GHSR1a cell line
Protocol: Evaluation of Ghrelin Agonist (EC50) and Antagonist Potency (IC50) with Calcium FLIPR Assay:
The intracellular calcium assay was carried out in a 384-well format FLIPR™ (Molecular Device) HEK293/GHSR1a cell line. Cells were seeded 24 hr prior to the experiments at an optimal density per well. Preincubation with selected calcium dye lasted for 30-60 min at room temperature or 37° C. Test compounds, dissolved in DMSO, were added at the appropriate time and incubated for 15 min followed by the addition of ghrelin with FlexStation or FLIPR. Relative fluorescence was monitored by the FLIPR™ Molecular Device. EC50 and IC50 values were estimated from dose-response data using GraphPad Prism software. To check for GHSR-1a agonism, the compound was added at t=20 sec. and the calcium response was followed for 2 minutes. To check for GHSR-1a antagonism, the compound and Ghrelin (10 nM) were added to the cells at t=20 sec. and the calcium response was measured for 2 minutes. The potency of the antagonist was calculated by its ability to reduce the ghrelin response. Dose-response curves were made for relevant antagonists.

T1 sequence (Q92847 whole entry): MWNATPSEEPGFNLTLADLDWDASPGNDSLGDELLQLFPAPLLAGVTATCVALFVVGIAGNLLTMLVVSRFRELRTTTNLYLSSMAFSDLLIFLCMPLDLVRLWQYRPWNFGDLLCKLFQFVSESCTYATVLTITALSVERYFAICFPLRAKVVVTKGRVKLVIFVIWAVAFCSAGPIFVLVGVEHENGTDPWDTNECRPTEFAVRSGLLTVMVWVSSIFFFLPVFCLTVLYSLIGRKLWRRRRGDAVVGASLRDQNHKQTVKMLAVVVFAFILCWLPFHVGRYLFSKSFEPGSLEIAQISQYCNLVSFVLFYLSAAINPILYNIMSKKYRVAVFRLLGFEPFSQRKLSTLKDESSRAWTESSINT
T2 sequence (Q92847 whole entry): as above

Structure (SMILES) | EC50 [1] | IC50 [2]
C[C@H](NC(=O)Nc1ccc(S(=O)(=O)Cc2ccc3c(c2)CCNC3)cc1)c1ccccc1 [H1028, (S)-1-(1-phenylethyl)-3-(4-(((1,2,3,4-tetrahydroisoquinolin-6-yl)methyl)sulfonyl)phenyl)urea] | 234 nM | 414 nM
O=C(NCc1ccccc1)Nc1ccc(S(=O)(=O)Cc2ccc3c(c2)CCNC3)cc1 [H1029, 1-benzyl-3-(4-(((1,2,3,4-tetrahydroisoquinolin-6-yl)methyl)sulfonyl)phenyl)urea] | 188 nM | 332 nM
COc1ccc([C@H](C)NC(=O)Nc2ccc(S(=O)(=O)Nc3ccc4c(c3)CCN(C(C)=O)C4)cc2)c(Cl)c1Cl [H1034, (S)-N-(2-acetyl-1,2,3,4-tetrahydroisoquinolin-6-yl)-4-(3-(1-(2,3-dichloro-4-methoxyphenyl)ethyl)ureido) benzenesulfonamide] | 1610 nM | 1260 nM
O=C(NCc1cccc(Cl)c1)Nc1ccc(S(=O)(=O)Cc2ccc3c(c2)CCNC3)cc1 [H1038, 1-(3-chlorobenzyl)-3-(4-(((1,2,3,4-tetrahydroisoquinolin-6-yl)methyl)sulfonyl)phenyl)urea] | 123 nM | 376 nM
O=C(NCc1cccc(Cl)c1Cl)Nc1ccc(S(=O)(=O)Cc2ccc3c(c2)CCNC3)cc1 [H1040, 1-(2,3-dichlorobenzyl)-3-(4-(((1,2,3,4-tetrahydroisoquinolin-6-yl)methyl)sulfonyl)phenyl)urea] | 164 nM | 31.8 nM
CC(NC(=O)Nc1ccc(S(=O)(=O)Cc2ccc3c(c2)CCNC3)cc1)c1ccccc1Cl (centres unmarked) [H1041, 1-(1-(2-chlorophenyl)ethyl)-3-(4-(((1,2,3,4-tetrahydroisoquinolin-6-yl)methyl)sulfonyl)phenyl)urea] | 55.5 nM | 17.4 nM
CC(NC(=O)Nc1ccc(S(=O)(=O)Cc2ccc3c(c2)CCNC3)cc1)c1cccc(Cl)c1 (centres unmarked) [H1042, 1-(1-(3-chlorophenyl)ethyl)-3-(4-(((1,2,3,4-tetrahydroisoquinolin-6-yl)methyl)sulfonyl)phenyl)urea] | 122 nM | 36.6 nM
O=C(NCc1cccc(Cl)c1Cl)Nc1ccc(S(=O)(=O)Cc2ccc3c(c2)CNCC3)cc1 [H1044, 1-(2,3-dichlorobenzyl)-3-(4-(((1,2,3,4-tetrahydroisoquinolin-7-yl)methyl)sulfonyl)phenyl)urea] | 143 nM | 53.1 nM
C[C@H](NC(=O)Nc1ccc(S(=O)(=O)Cc2ccc3c(c2)CCN3)cc1)c1cccc(Cl)c1Cl [H1047, (S)-1-(1-(2,3-dichlorophenyl)ethyl)-3-(4-((indolin-5-ylmethyl)sulfonyl)phenyl)urea] | 1160 nM | 865 nM
C[C@H](NC(=O)Nc1ccc(S(=O)(=O)Nc2ccc3c(c2)CNCC3)cc1)c1cccc(Cl)c1Cl [H1049, (S)-4-(3-(1-(2,3-dichlorophenyl)ethyl)ureido)-N-(1,2,3,4-tetrahydroisoquinolin-7-yl)benzenesulfonamide] | 29.6 nM | 16.3 nM
C[C@H](NC(=O)Nc1ccc(S(=O)(=O)Nc2ccc(CN)cc2)cc1)c1cccc(Cl)c1Cl [H1050, (S)-N-(4-(aminomethyl)phenyl)-4-(3-(1-(2,3-dichlorophenyl)ethyl)ureido) benzenesulfonamide] | 109 nM | 57.4 nM
C[C@H](NC(=O)Nc1ccc(S(=O)(=O)Cc2ccc(CN)cc2)cc1)c1cccc(Cl)c1Cl [H1051, (S)-1-(4-((4-(aminomethyl)benzyl)sulfonyl)phenyl)-3-(1-(2,3-dichlorophenyl)ethyl)urea] | 116 nM | 53.7 nM
CCOC(=O)N1CCc2cc(CS(=O)(=O)c3ccc(NC(=O)N[C@@H](C)c4cccc(Cl)c4Cl)cc3)ccc2C1 [H1055, ethyl (S)-6-(((4-(3-(1-(2,3-dichlorophenyl)ethyl)ureido)phenyl)sulfonyl)methyl)-3,4-dihydroisoquinoline-2(1H)-carboxylate] | 516 nM | 4470 nM
C[C@H](NC(=O)Nc1ccc(S(=O)(=O)Cc2ccc3c(c2)CCN(Cc2ccccc2)C3)cc1)c1cccc(Cl)c1Cl [H1072, (S)-1-(4-(((2-benzyl-1,2,3,4-tetrahydroisoquinolin-6-yl)methyl)sulfonyl)phenyl)-3-(1-(2,3-dichlorophenyl)ethyl)urea] | 21.9 nM | 123 nM
C[C@H](NC(=O)Nc1ccc(S(=O)(=O)Nc2ccc(C(C)(C)N)cc2)cc1)c1cccc(Cl)c1Cl [H1074, (S)-N-(4-(2-aminopropan-2-yl)phenyl)-4-(3-(1-(2,3-dichlorophenyl)ethyl)ureido) benzenesulfonamide] | 657 nM | 3250 nM
C[C@H](NC(=O)Nc1ccc(S(=O)(=O)Cc2cccc(CO)c2)cc1)c1cccc(Cl)c1Cl [H1088, (S)-1-(1-(2,3-dichlorophenyl)ethyl)-3-(4-((3-(hydroxymethyl)benzyl)sulfonyl)phenyl)urea] | 367 nM | 7970 nM
COCc1ccc(CS(=O)(=O)c2ccc(NC(=O)N[C@@H](C)c3cccc(Cl)c3Cl)cc2)cc1 [H1093, (S)-1-(1-(2,3-dichlorophenyl)ethyl)-3-(4-((4-(methoxymethyl)benzyl)sulfonyl)phenyl)urea] | 327 nM | 2380 nM
C[C@H](NC(=O)Nc1ccc(S(=O)(=O)Cc2ccc3c(c2)COCC3)cc1)c1cccc(Cl)c1Cl [H1097, (S)-1-(1-(2,3-dichlorophenyl)ethyl)-3-(4-((isochroman-7-ylmethyl)sulfonyl)phenyl)urea] | 363 nM | 1970 nM
C[C@H](NC(=O)Nc1ccc(S(=O)(=O)Cc2ccc3c(c2)COC3)cc1)c1cccc(Cl)c1Cl [H1098, (S)-1-(1-(2,3-dichlorophenyl)ethyl)-3-(4-(((1,3-dihydroisobenzofuran-5-yl)methyl)sulfonyl)phenyl)urea] | 649 nM | 12100 nM
C[C@H](NC(=O)Nc1ccc(S(=O)(=O)Cc2ccc(O)cc2)cc1)c1cccc(Cl)c1Cl [H1099, (S)-1-(1-(2,3-dichlorophenyl)ethyl)-3-(4-((4-hydroxybenzyl)sulfonyl)phenyl)urea] | 1140 nM | 8670 nM
CC(c1ccc2c(c1)CCNC2)S(=O)(=O)c1ccc(NC(=O)N[C@@H](C)c2cccc(Cl)c2Cl)cc1 (stereo partly drawn) [H1102, 1-((S)-1-(2,3-dichlorophenyl)ethyl)-3-(4-((1-(1,2,3,4-tetrahydroisoquinolin-6-yl)ethyl)sulfonyl)phenyl)urea hydrochloride] | 58.3 nM and 21.6 nM | 73.9 nM
CC(c1ccc2c(c1)CCNC2)S(=O)(=O)c1ccc(NC(=O)N[C@@H](C)c2cccc(Cl)c2Cl)cc1 (stereo partly drawn) [H1103, 1-((S)-1-(2,3-dichlorophenyl)ethyl)-3-(4-((1-(1,2,3,4-tetrahydroisoquinolin-6-yl)ethyl)sulfonyl)phenyl)urea hydrochloride] | 66 nM | 487 nM
C[C@H](NC(=O)Nc1ccc(S(=O)(=O)Nc2ccc3[nH]ncc3c2)cc1)c1cccc(Cl)c1Cl [H1106, (S)-4-(3-(1-(2,3-dichlorophenyl)ethyl)ureido)-N-(1H-indazol-5-yl) benzenesulfonamide] | 862 nM | 1430 nM
C[C@H](NC(=O)Nc1ccc(S(=O)(=O)Nc2ccc(-c3cnc[nH]3)cc2)cc1)c1cccc(Cl)c1Cl [H1109, (S)-N-(4-(1H-imidazol-5-yl)phenyl)-4-(3-(1-(2,3-dichlorophenyl)ethyl)ureido) benzenesulfonamide] | 136 nM | 427 nM
C[C@H](NC(=O)Nc1ccc(S(=O)(=O)Nc2ccc(N)nn2)cc1)c1cccc(Cl)c1Cl [H1129, (S)-N-(6-aminopyridazin-3-yl)-4-(3-(1-(2,3-dichlorophenyl)ethyl)ureido) benzenesulfonamide] | 2460 nM | 3330 nM
C[C@H](NC(=O)Nc1ccc(S(=O)(=O)Cc2cnc(N)nc2)cc1)c1cccc(Cl)c1Cl [H1130, (S)-1-(4-(((2-aminopyrimidin-5-yl)methyl)sulfonyl)phenyl)-3-(1-(2,3-dichlorophenyl)ethyl)urea] | 1280 nM | 3380 nM
CC(NC(=O)Nc1ccc(S(=O)(=O)Cc2ccc(CO)cc2)cc1)c1cccc2ccccc12 (centres unmarked) [H1132, 1-(4-((4-(hydroxymethyl)benzyl)sulfonyl)phenyl)-3-(1-(naphthalen-1-yl)ethyl)urea] | 219 nM | 574 nM
CC(NC(=O)Nc1ccc(S(=O)(=O)Nc2ccc(CO)cc2)cc1)c1cccc2ccccc12 (centres unmarked) [H1133, N-(4-(hydroxymethyl)phenyl)-4-(3-(1-(naphthalen-1-yl)ethyl)ureido) benzenesulfonamide] | 170 nM | 419 nM
